Data reported in patent US20130244875A1, “METHODS AND COMPOSITIONS FOR IMPROVING PLANT HEALTH” (priority 2006, published 2013).

How the values were obtained:
Format in all cases: in vivo
[1] = system: PR-2, i.e., β-1,3-glucanase; assay: Induction of PR2 (northern blot) in DMO soybean sprayed with dicamba or DCSA; conditions: two transgenic soybean lines; 0.25, 0.5 and 1 lb/Acre; 24 hrs after treatment; no induction in untreated or water only
Procedure: A 14 hour minimum photoperiod was provided with supplemental light at about 600 μE (micro-Einsteins) as needed. Trials were established in a randomized block design randomized by rate with 4 to 6 replications of each treatment.
All herbicide applications were made with the track sprayer using a Teejet® 9501E flat fan nozzle (Spraying Systems Co, Wheaton, Ill.) with air pressure set at a minimum of 24 psi (pounds per square inch), or 165 kpa (kilopascals)). The spray nozzle was kept at a height of about 16 inches above the top of plant material for spraying. The spray volume was 10 gallons per acre or 93 liters per hectare. Applications were made when plants had reached V-3 stage.
Events carrying a DMO transgene in their genome were grown and treated with dicamba (Clarity®, BASF) at 1 lb/Acre at Post-V3 stage. Leaf samples were harvested after 0, 3, 8, 24, 48, 72 hrs after treatment (HAT) and frozen for further analysis. In another experiment, DMO-containing plants were sprayed with either dicamba or DCSA at 0.25, 0.5 and 1 lb/Acre rate and tissue samples were collected 24 HAT. RNA was extracted and analyzed by northern blot analysis using PR-2, i.e., β-1,3-glucanase as a probe. PR-2 is a pathogenesis-related protein known to degrade […] and thus provide protection against fungal pathogens (U.S. Pat. No. 5,670,706 and Uknes et al., 1992).

[2] = system: soybean plants; assay: Copper injury on soybeans; conditions: DCSA 0.5 lb/A as tank mix or pretreatment 1 hr or 24 hr before 1000 ppm copper; reduced from 45%
Description: Plants are sensitive to heavy metal toxicity. Heavy metals are present in the environment or sometimes applied to plants for pest control. Symptoms of plant injury following treatment with a heavy metal compound, for example, a compound containing copper, are necrotic leaf spotting and flecking with more severe injury resulting in larger reddish brown spots, […] necrosis and/or necrotic puckered leaves.

[3] = system: Pythium ultimum; assay: Pythium ultimum inoculation of cotton seedlings after spray; conditions: same conditions kill plants not contacted with 3,6-DCSA
Procedure: Ten-day old Roundup Ready® Flex Cotton (Event MON 88913; U.S. Publ. 20060059590) seedlings were sprayed with a mixture of Roundup Weather Max® (Monsanto Company, St. Louis, Mo.) and 3,6-DCSA (BASF). The control plants were sprayed with water only. The cotton seedlings from both treatments were inoculated with Pythium ultimum by dipping seedling into inoculum slurry, 24 hours after the spray application. The positive control plants were neither sprayed nor inoculated with P. ultimum. […] Cotton plants treated with Roundup® and DCSA were as healthy as were the plants not inoculated with P. ultimum.

[4] = system: soybean seeds; assay: Soybean seed germination in DCSA solution; parameters: key: 1—low; 2—moderate; 3—high; 3+—exceptionally high; conditions: N=8
Procedure: Rapid seed germination is an important agronomic trait that reduces crop losses due to seed rot especially under cool wet conditions. Soybeans seeds of three varieties were germinated in a solution of 1, 10, or 100 μM DCSA or water at normal temperature (22° C.) or cool temperature (15° C.) and rated for seed germination at 1DAT (1 day after treatment) and 2DAT (2 days after treatment) at 22° C. or 4DAT (days after treatment) at 15° C. The germination rate was scored as 1—low, 2—moderate, 3—high for each treatment, 3+—exceptionally high, N=8.

[5] = system: soybean plants; assay: AMPA induced yellow flash in soybean; conditions: 8DAT, scale 1-3, surfactant alone 2.7
Procedure: Yellow flash is a symptom sometimes observed in glyphosate tolerant soybeans treated with glyphosate due to the formation of AMPA (aminomethyl phosphonic acid). A study was conducted to determine if DCSA treatment would protect soybean plants from AMPA induced yellow flash symptoms. Soybean plants were grown to V1-2 growth stage and divided into 3 treatment groups, 3 pots of plants per treatment. The treatments were 0.5 lb/A DCSA, 1.0 lb/A DCSA or surfactant alone. One day after treatment, all of the plants were sprayed with 1 lb/A of AMPA (Sigma Aldrich, St. Louis, Mo.) in surfactant. […] In an aspect of the present invention, a tolerance to yellow flash is provided due to improved plant health by DCSA applied to a plant in need of yellow flash tolerance or DCSA produced in vivo by the action of DMO on dicamba in transgenic plants comprising a DMO transgene.

O=C(O)c1c(Cl)ccc(Cl)c1O [DCSA, 3,6-dichloro salicylic acid]
induction of PR2: induction of PR2 at various rates [1]
survive inoculation: survival of cotton plants after inoculation with Pythium ultimum [3]
2: germination rating ([4]; soybean Variety 2, 1 μM DCSA, 1DAT, 22° C.) | germination rating ([4]; soybean Variety 2, 10 μM DCSA, 1DAT, 22° C.) | germination rating ([4]; soybean Variety 3, 1 μM DCSA, 1DAT, 22° C.) | germination rating ([4]; soybean Variety 3, 1 μM DCSA, 2DAT, 22° C.) | germination rating ([4]; soybean Variety 3, 10 μM DCSA, 1DAT, 22° C.) | germination rating ([4]; soybean Variety 3, 10 μM DCSA, 4 DAT, 15° C.)
3+: germination rating ([4]; soybean Variety 1, 100 μM DCSA, 2DAT, 22° C.) | germination rating ([4]; soybean Variety 2, 100 μM DCSA, 2DAT, 22° C.)
1: germination rating ([4]; soybean Variety 1, 1 μM DCSA, 1DAT, 22° C.) | germination rating ([4]; soybean Variety 1, 1 μM DCSA, 4 DAT, 15° C.) | germination rating ([4]; soybean Variety 1, 10 μM DCSA, 1DAT, 22° C.) | germination rating ([4]; soybean Variety 3, 100 μM DCSA, 1DAT, 22° C.) | germination rating ([4]; soybean Variety 3, 100 μM DCSA, 4 DAT, 15° C.)
1.7: Average symptoms ([5]; 1.0 lb/A DCSA one day before 1 lb/A AMPA)
3: germination rating ([4]; soybean Variety 1, 1 μM DCSA, 2DAT, 22° C.) | germination rating ([4]; soybean Variety 1, 10 μM DCSA, 2DAT, 22° C.) | germination rating ([4]; soybean Variety 1, 10 μM DCSA, 4 DAT, 15° C.) | germination rating ([4]; soybean Variety 1, 100 μM DCSA, 1DAT, 22° C.) | germination rating ([4]; soybean Variety 1, 100 μM DCSA, 4 DAT, 15° C.) | germination rating ([4]; soybean Variety 2, 1 μM DCSA, 2DAT, 22° C.) | germination rating ([4]; soybean Variety 2, 1 μM DCSA, 4 DAT, 15° C.) | germination rating ([4]; soybean Variety 2, 10 μM DCSA, 2DAT, 22° C.) | germination rating ([4]; soybean Variety 2, 10 μM DCSA, 4 DAT, 15° C.) | germination rating ([4]; soybean Variety 2, 100 μM DCSA, 1DAT, 22° C.) | germination rating ([4]; soybean Variety 2, 100 μM DCSA, 4 DAT, 15° C.) | germination rating ([4]; soybean Variety 3, 1 μM DCSA, 4 DAT, 15° C.) | germination rating ([4]; soybean Variety 3, 10 μM DCSA, 2DAT, 22° C.) | germination rating ([4]; soybean Variety 3, 100 μM DCSA, 2DAT, 22° C.) | Average symptoms ([5]; 0.5 lb/A DCSA one day before 1 lb/A AMPA)
24-33%: Soybean injury levels [2]
